IC50 data for 20 compounds are collected here from patent publication US11814367B2, “Inhibitors of glycogen synthase 1 (GYS1) and methods of use thereof” (Maze Therapeutics, Inc., priority 2021, dated 2023).

A value given as a limit tells only on which side of the number the result lay.

The target in assay [1] is hGYS2 enzyme (recombinant hGYS2/GN1 protein) (Homo sapiens (Human), UniProt P54840). Kind of assay: GYS2 coupled enzyme assay (PK/LDH). Format: biochemical. The settings on record: geometric mean of at least 2 assay runs on separate days, read-out: Avg_IC50. The procedure, abridged:
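Read-out: NADH loss at 340 nm, read each minute for 10 min, slope normalized to controls, duplicate % inhibition fit to Hill (0–100). Enzyme: 200 nM hGYS2/GN1; substrate 2 mM UDP-glucose plus 0.2% glycogen and 2 mM G6P; pH 7.5 Tris, 2.5% DMSO.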

Assay [2] has as its system hGYS1 enzyme / glycogen synthesis in HeLa cells. Briefly: GYS1 cell based assay (glycogen synthesis, Glucose-glo). Also on record: species or system human. To be noted: Homo sapiens, HeLa, 24 h, 24 h incubation, 20 mM glucose, geometric mean of at least 2 runs. Summed up:
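HeLa cells starved 24 h in medium containing only 1× Glutamax were plated onto compound in medium with 20 mM glucose (1% DMSO final) for 24 h, 37 °C, 5% CO2. Acid lysates were Tris-quenched, glucoamylase-digested (pH 5.3, 1 h, 37 °C) and read by Glucose-glo luminescence. IC50 came from Hill fits, as geometric mean of ≥2 runs.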

The target in assay [3] is hGYS1 enzyme (recombinant hGYS1/GN1 protein) (Homo sapiens (Human), UniProt P13807). Kind of assay: GYS1 coupled enzyme assay (PK/LDH). The settings on record: hGYS1/GN1 50 nM, UDP-Glucose 0.8 mM, G6P 1 mM; geometric mean of at least 2 runs. It is filed as biochemical.
Chain of hGYS1 enzyme (recombinant hGYS1/GN1 protein) (P13807 whole entry): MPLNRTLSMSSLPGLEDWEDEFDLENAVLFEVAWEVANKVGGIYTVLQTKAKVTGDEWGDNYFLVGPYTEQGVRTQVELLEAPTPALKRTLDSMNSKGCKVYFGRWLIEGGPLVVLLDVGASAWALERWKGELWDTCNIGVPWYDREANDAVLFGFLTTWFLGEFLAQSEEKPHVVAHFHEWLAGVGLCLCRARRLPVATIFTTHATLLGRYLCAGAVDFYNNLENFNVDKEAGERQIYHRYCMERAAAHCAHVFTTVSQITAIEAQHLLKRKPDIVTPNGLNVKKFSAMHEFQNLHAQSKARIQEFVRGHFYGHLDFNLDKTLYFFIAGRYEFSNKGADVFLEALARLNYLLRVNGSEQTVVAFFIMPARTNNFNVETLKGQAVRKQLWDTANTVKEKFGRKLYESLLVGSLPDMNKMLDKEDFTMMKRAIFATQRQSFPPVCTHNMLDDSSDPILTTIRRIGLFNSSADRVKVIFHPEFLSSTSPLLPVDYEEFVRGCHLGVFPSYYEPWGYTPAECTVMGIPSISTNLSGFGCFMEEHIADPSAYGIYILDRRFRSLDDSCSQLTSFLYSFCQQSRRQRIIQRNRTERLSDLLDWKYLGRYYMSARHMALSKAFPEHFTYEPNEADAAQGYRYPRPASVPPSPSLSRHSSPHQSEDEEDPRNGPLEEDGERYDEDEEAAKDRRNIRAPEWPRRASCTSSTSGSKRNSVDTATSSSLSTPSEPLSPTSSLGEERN
Chain of hGYS1 enzyme (recombinant hGYS1/GN1 protein) (P46976 whole entry partner): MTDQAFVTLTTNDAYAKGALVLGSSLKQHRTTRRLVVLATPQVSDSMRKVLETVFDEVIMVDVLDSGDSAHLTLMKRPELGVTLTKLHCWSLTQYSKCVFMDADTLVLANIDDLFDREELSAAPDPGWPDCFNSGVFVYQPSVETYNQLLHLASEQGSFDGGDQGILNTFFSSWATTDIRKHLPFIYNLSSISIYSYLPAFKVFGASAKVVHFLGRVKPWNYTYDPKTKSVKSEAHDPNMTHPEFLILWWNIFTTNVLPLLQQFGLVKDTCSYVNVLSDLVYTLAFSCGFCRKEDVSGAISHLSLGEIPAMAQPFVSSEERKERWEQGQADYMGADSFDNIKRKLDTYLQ

Chain of hGYS2 enzyme (recombinant hGYS2/GN1 protein) (P54840 whole entry): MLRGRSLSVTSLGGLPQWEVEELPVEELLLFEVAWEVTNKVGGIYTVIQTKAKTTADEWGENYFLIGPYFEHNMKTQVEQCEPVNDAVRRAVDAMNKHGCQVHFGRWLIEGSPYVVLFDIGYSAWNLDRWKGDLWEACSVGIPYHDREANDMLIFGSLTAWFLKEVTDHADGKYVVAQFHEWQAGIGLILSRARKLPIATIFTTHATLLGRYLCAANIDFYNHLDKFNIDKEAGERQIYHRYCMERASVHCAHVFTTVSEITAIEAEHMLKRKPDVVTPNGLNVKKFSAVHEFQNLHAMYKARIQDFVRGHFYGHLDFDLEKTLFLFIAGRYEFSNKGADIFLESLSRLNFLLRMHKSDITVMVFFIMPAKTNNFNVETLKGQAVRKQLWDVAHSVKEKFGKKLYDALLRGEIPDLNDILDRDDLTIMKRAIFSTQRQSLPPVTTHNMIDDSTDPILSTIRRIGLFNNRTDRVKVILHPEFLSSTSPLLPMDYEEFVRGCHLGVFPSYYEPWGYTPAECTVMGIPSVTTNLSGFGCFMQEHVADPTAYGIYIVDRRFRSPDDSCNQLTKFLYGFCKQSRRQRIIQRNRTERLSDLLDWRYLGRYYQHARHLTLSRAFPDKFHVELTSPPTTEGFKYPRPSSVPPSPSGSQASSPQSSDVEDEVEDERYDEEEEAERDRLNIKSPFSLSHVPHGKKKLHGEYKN
Chain of hGYS2 enzyme (recombinant hGYS2/GN1 protein) (P46976 whole entry partner): as the sequence (P46976 whole entry partner) above

`CC(C)c1ccc([C@@H](NC(=O)[C@@H]2C[C@@H](F)CN2C(=O)Cn2cnc3ccccc32)c2ccccc2)cc1F` [Compound 354, (2S,4R)-1-[2-(1H-1,3-benzodiazol-1-yl)acetyl]-4-fluoro-N-[(S)-[3-fluoro-4-(propan-2-yl)phenyl](phenyl)methyl] pyrrolidine-2-carboxamide]: the IC50 was over 100000 nM in assay [1], 60 nM in assay [2] and 5 nM in assay [3].
With `CC(C)c1ccc([C@@H](NC(=O)[C@@H]2C[C@@H](F)CN2C(=O)Cc2cnn(C)c2)c2ccccc2)cc1F` [Compound 355, (2S,4R)-4-fluoro-N-[(S)-[3-fluoro-4-(propan-2-yl)phenyl](phenyl)methyl]-1-[2-(1-methyl-1H-pyrazol-4-yl)acetyl]pyrrolidine-2-carboxamide], the figures for the IC50 in assay [1], in assay [2] and in assay [3] were over 100000 nM, 160 nM and 18 nM, respectively.
The corresponding values for `CC(C)c1ccc([C@@H](NC(=O)[C@@H]2C[C@@H](F)CN2C(=O)Cc2cnc3ccccn23)c2ccccc2)cc1F` [Compound 356, (2S,4R)-4-fluoro-N-[(S)-[3-fluoro-4-(propan-2-yl)phenyl](phenyl)methyl]-1-(2-{imidazo[1,2-a]pyridin-3-yl}acetyl)pyrrolidine-2-carboxamide] are over 100000 nM, 190 nM and 13 nM.
The corresponding values for `CC(C)c1ccc([C@@H](NC(=O)[C@@H]2C[C@@H](F)CN2C(=O)Cc2ccc3ncccc3c2)c2ccccc2)cc1F` [Compound 357, (2S,4R)-4-fluoro-N-[(S)-[3-fluoro-4-(propan-2-yl)phenyl](phenyl)methyl]-1-[2-(quinolin-6-yl)acetyl]pyrrolidine-2-carboxamide] are over 100000 nM, 220 nM and 21 nM.
As for `CC(C)c1ccc([C@@H](NC(=O)[C@@H]2C[C@@H](F)CN2C(=O)Cc2ccc3ncnn3c2)c2ccccc2)cc1F` [Compound 358, (2S,4R)-4-fluoro-N-[(S)-[3-fluoro-4-(propan-2-yl)phenyl](phenyl)methyl]-1-(2-{[1,2,4]triazolo[1,5-a]pyridin-6-yl}acetyl)pyrrolidine-2-carboxamide], the IC50 is over 100000 nM in assay [1], 190 nM in assay [2] and 11 nM in assay [3].
The corresponding values for `CC(C)c1ccc([C@@H](NC(=O)[C@@H]2C[C@@H](F)CN2C(=O)Cn2nnnc2C(F)(F)F)c2ccccc2)cc1F` [Compound 359] are over 100000 nM, 960 nM and 63 nM.
The corresponding values for `CC(C)c1ccc([C@@H](NC(=O)[C@@H]2C[C@@H](F)CN2C(=O)COC(=O)N(C)C)c2ccccc2)cc1F` [Compound 360, 2-[(2S,4R)-4-fluoro-2-{[(S)-[3-fluoro-4-(propan-2-yl)phenyl](phenyl)methyl]carbamoyl}pyrrolidin-1-yl]-2-oxoethyl N,N-dimethylcarbamate] are over 100000 nM, 310 nM and 19 nM.
For the compound `CC(C)c1ccc([C@@H](NC(=O)[C@@H]2C[C@@H](F)CN2C(=O)CN(C)C(=O)N(C)C)c2ccccc2)cc1F` [Compound 362, (2S,4R)-1-{2-[(dimethylcarbamoyl) (methyl)amino]acetyl}-4-fluoro-N-[(S)-[3-fluoro-4-(propan-2-yl)phenyl](phenyl)methyl] pyrrolidine-2-carboxamide], the values for the IC50 in assay [1], in assay [2] and in assay [3] were over 100000 nM, 1150 nM and 90 nM, respectively.
The corresponding values for `CC(C)c1ccc([C@@H](NC(=O)[C@@H]2C[C@@H](F)CN2C(=O)COC(=O)N2CCNCC2)c2ccccc2)cc1F` [Compound 363, 2-[(2S,4R)-4-fluoro-2-{[(S)-[3-fluoro-4-(propan-2-yl)phenyl](phenyl)methyl]carbamoyl}pyrrolidin-1-yl]-2-oxoethyl piperazine-1-carboxylate] are over 100000 nM, 320 nM and 19 nM.
For `CC(C)c1ccc([C@@H](NC(=O)[C@@H]2C[C@@H](F)CN2C(=O)COC(=O)N2CCN(C(=O)OC(C)(C)C)CC2)c2ccccc2)cc1F` [Compound 364, 1-tert-butyl 4-{2-[(2S,4R)-4-fluoro-2-{[(S)-[3-fluoro-4-(propan-2-yl)phenyl](phenyl)methyl]carbamoyl}pyrrolidin-1-yl]-2-oxoethyl} piperazine-1,4-dicarboxylate] the same measures were over 100000 nM, 480 nM and 80 nM.
The corresponding values for `CC(C)c1ccc([C@@H](NC(=O)[C@@H]2C[C@@H](F)CN2C(=O)CNC(=O)N2CCNCC2)c2ccccc2)cc1F` [Compound 365, N-{2-[(2S,4R)-4-fluoro-2-{[(S)-[3-fluoro-4-(propan-2-yl)phenyl](phenyl)methyl]carbamoyl}pyrrolidin-1-yl]-2-oxoethyl}piperazine-1-carboxamide] are over 100000 nM, 1190 nM and 7 nM.
For the compound `Cc1nn[nH]c1CC(=O)N1C[C@H](F)C[C@H]1C(=O)N[C@@H](c1ccccc1)c1ccc(C(C)C)c(F)c1` [Compound 367, (2S,4R)-4-fluoro-N-[(S)-[3-fluoro-4-(propan-2-yl)phenyl](phenyl)methyl]-1-[2-(4-methyl-1H-1,2,3-triazol-5-yl)acetyl]pyrrolidine-2-carboxamide], the IC50 in assay [1] is over 100000 nM; in assay [2], 470 nM; in assay [3], 16 nM.
For `CC(C)c1ccc([C@@H](NC(=O)[C@@H]2C[C@@H](F)CN2C(=O)Cc2[nH]nnc2C(F)(F)F)c2ccccc2)cc1F` [Compound 368, (2S,4R)-4-fluoro-N-[(S)-[3-fluoro-4-(propan-2-yl)phenyl](phenyl)methyl]-1-{2-[4-(trifluoromethyl)-1H-1,2,3-triazol-5-yl]acetyl}pyrrolidine-2-carboxamide] the same measures were over 82300 nM, 150 nM and 5 nM.
The corresponding values for `CC(C)c1ccc([C@@H](NC(=O)[C@@H]2C[C@@H](F)CN2C(=O)Cc2[nH]nnc2N2CCNCC2)c2ccccc2)cc1F` [Compound 369, (2S,4R)-4-fluoro-N-[(S)-[3-fluoro-4-(propan-2-yl)phenyl](phenyl)methyl]-1-{2-[4-(piperazin-1-yl)-1H-1,2,3-triazol-5-yl]acetyl}pyrrolidine-2-carboxamide] are over 100000 nM, over 30000 nM and 537 nM.
Regarding `CC(C)c1ccc([C@@H](NC(=O)[C@@H]2C[C@@H](F)CN2C(=O)Cc2[nH]nnc2N2CCOCC2)c2ccccc2)cc1F` [Compound 371, (2S,4R)-4-fluoro-N-[(S)-[3-fluoro-4-(propan-2-yl)phenyl](phenyl)methyl]-1-{2-[4-(morpholin-4-yl)-1H-1,2,3-triazol-5-yl]acetyl}pyrrolidine-2-carboxamide], the results for the IC50 in assay [1], in assay [2] and in assay [3] were over 100000 nM, 3880 nM and 343 nM, respectively.
The corresponding values for `CC(C)c1ccc([C@@H](NC(=O)[C@@H]2C[C@@H](F)CN2C(=O)Cn2cc(C(F)(F)F)nn2)c2ccccc2)cc1F` [Compound 372, (2S,4R)-4-fluoro-N-[(S)-[3-fluoro-4-(propan-2-yl)phenyl](phenyl)methyl]-1-{2-[4-(trifluoromethyl)-1H-1,2,3-triazol-1-yl]acetyl}pyrrolidine-2-carboxamide] are over 100000 nM, 1100 nM and 36 nM.
Turning to `Cc1cn(CC(=O)N2C[C@H](F)C[C@H]2C(=O)N[C@@H](c2ccccc2)c2ccc(C(C)C)c(F)c2)nn1` [Compound 373, (2S,4R)-4-fluoro-N-[(S)-[3-fluoro-4-(propan-2-yl)phenyl](phenyl)methyl]-1-[2-(4-methyl-1H-1,2,3-triazol-1-yl)acetyl]pyrrolidine-2-carboxamide], the IC50 in assay [1] is over 100000 nM; in assay [2], 210 nM; in assay [3], 14 nM.
For `Cc1cnnn1CC(=O)N1C[C@H](F)C[C@H]1C(=O)N[C@@H](c1ccccc1)c1ccc(C(C)C)c(F)c1` [Compound 374, (2S,4R)-4-fluoro-N-[(S)-[3-fluoro-4-(propan-2-yl)phenyl](phenyl)methyl]-1-[2-(5-methyl-1H-1,2,3-triazol-1-yl)acetyl]pyrrolidine-2-carboxamide] the same measures were over 100000 nM, 360 nM and 22 nM.
Turning to `CC(C)c1ccc([C@@H](NC(=O)[C@@H]2C[C@@H](F)CN2C(=O)Cn2cc(N3CCNCC3)nn2)c2ccccc2)cc1F` [Compound 375, (2S,4R)-4-fluoro-N-[(S)-[3-fluoro-4-(propan-2-yl)phenyl](phenyl)methyl]-1-{2-[4-(piperazin-1-yl)-1H-1,2,3-triazol-1-yl]acetyl}pyrrolidine-2-carboxamide], the IC50 in assay [1] is over 77400 nM; in assay [2], 570 nM; in assay [3], 6 nM.
The corresponding values for `CC(C)c1ccc([C@@H](NC(=O)[C@@H]2C[C@@H](F)CN2C(=O)Cn2cc(N(C)C)nn2)c2ccccc2)cc1F` [Compound 377, (2S,4R)-1-{2-[4-(dimethylamino)-1H-1,2,3-triazol-1-yl]acetyl}-4-fluoro-N-[(S)-[3-fluoro-4-(propan-2-yl)phenyl](phenyl)methyl] pyrrolidine-2-carboxamide] are over 100000 nM, 140 nM and 12 nM.
